Test results as given in article PMC6757289, “Design and Characterization of SGK3-PROTAC1, an Isoform Specific SGK3 Kinase PROTAC Degrader” (ACS Chemical Biology, 2019).
Like-named read-outs stand apart in the source and are kept apart here.

Key:
Experiment in all cases: kinase profiling panel
Assay type in all cases: biochemical
Settings in all cases: read-out: % Activity Remaining
[1] = biological target: RSK2 (Homo sapiens, UniProt P51812)
Description: (§1) Protein kinase profiling against a Dundee panel of 140 protein kinases was undertaken at the International Centre for Protein Kinase Profiling. The result for each kinase was presented as a mean kinase activity of the reaction taken in triplicate relative to a control sample treated with DMSO. Assay conditions and abbreviations are available at http://www.kinase-screen.mrc.ac.uk.

[2] = biological target: T1, ULK1 (Homo sapiens, UniProt O75385)
T1 sequence (O75385 1-1050): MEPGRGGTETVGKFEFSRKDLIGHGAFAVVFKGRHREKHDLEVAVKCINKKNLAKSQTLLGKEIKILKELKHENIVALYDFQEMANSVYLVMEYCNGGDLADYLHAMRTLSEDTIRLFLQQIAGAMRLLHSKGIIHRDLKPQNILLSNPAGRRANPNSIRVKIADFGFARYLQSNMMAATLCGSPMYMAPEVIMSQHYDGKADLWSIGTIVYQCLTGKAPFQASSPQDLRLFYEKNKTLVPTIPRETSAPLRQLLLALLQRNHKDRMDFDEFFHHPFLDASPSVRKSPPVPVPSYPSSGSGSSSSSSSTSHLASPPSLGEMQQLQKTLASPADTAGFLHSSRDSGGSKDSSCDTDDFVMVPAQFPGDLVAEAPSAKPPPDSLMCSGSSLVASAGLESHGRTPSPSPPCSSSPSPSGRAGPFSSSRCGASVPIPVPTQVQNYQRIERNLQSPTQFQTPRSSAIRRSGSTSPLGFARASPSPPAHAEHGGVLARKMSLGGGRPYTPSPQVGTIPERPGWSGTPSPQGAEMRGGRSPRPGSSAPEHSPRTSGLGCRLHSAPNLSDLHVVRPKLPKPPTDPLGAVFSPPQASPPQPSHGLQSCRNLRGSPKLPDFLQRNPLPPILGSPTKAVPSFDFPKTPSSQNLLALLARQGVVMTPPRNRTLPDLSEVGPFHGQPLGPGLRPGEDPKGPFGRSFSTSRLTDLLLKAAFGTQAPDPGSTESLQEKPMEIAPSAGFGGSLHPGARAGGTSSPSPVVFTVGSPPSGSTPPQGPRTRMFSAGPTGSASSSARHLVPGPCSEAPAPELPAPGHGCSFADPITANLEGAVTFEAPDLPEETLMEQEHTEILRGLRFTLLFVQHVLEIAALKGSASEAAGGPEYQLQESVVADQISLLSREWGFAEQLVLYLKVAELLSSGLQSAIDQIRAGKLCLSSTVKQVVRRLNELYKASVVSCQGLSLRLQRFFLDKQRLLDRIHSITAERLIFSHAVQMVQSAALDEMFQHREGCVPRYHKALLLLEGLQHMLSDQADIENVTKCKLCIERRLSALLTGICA
Description: as §1

[3] = biological target: IRR (Homo sapiens, UniProt P14616)
Chain of IRR (P14616 27-1297): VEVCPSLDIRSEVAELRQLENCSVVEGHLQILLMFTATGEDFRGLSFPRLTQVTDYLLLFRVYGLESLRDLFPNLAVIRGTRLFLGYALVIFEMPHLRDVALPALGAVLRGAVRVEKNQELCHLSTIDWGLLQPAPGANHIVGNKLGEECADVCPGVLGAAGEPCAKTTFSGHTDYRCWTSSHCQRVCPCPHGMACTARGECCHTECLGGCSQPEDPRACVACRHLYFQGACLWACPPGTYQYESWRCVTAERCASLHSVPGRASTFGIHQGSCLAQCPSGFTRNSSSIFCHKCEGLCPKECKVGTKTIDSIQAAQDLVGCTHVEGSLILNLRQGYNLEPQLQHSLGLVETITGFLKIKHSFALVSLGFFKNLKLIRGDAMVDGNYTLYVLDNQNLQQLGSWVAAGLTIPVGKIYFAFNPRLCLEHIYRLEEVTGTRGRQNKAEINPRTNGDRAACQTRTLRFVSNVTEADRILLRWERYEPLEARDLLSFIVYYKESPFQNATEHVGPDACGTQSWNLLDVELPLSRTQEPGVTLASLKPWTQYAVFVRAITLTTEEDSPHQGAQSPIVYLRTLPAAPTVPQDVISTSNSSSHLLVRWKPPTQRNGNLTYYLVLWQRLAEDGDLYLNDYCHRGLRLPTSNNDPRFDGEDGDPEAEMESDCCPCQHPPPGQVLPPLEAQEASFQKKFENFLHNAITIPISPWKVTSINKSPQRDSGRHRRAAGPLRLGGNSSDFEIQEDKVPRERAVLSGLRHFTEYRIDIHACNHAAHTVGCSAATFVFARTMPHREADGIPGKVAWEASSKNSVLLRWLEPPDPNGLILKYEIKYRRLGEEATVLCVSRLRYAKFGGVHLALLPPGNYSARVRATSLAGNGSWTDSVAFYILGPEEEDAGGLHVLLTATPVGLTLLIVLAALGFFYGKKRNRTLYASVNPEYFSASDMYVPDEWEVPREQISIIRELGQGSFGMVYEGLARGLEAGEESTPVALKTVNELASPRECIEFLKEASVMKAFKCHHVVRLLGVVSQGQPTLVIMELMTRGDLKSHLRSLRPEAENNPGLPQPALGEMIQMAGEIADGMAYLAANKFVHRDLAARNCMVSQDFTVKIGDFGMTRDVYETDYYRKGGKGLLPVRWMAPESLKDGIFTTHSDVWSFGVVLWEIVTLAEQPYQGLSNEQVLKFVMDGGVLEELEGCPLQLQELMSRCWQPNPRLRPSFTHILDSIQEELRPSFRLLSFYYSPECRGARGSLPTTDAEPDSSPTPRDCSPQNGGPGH
Description: as §1

[4] = biological target: Src (Homo sapiens, UniProt P12931)
Chain of Src (P12931 whole entry): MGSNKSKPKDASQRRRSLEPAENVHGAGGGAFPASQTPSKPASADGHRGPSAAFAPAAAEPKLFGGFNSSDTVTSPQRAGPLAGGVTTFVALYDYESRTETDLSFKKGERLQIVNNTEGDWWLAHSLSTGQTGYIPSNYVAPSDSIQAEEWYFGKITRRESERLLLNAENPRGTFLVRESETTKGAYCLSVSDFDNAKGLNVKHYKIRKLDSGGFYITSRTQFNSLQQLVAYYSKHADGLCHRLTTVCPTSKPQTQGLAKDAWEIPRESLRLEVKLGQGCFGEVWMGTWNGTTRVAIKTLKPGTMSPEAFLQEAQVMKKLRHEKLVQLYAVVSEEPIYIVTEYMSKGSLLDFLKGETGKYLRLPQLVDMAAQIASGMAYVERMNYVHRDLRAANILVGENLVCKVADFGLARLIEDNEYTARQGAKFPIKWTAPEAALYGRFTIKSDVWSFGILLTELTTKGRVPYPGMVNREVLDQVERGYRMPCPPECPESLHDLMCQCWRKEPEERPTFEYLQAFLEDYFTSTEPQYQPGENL
Description: as §1

[5] = biological target: HIPK1 (Homo sapiens, UniProt Q86Z02)
Chain of HIPK1 (Q86Z02 whole entry): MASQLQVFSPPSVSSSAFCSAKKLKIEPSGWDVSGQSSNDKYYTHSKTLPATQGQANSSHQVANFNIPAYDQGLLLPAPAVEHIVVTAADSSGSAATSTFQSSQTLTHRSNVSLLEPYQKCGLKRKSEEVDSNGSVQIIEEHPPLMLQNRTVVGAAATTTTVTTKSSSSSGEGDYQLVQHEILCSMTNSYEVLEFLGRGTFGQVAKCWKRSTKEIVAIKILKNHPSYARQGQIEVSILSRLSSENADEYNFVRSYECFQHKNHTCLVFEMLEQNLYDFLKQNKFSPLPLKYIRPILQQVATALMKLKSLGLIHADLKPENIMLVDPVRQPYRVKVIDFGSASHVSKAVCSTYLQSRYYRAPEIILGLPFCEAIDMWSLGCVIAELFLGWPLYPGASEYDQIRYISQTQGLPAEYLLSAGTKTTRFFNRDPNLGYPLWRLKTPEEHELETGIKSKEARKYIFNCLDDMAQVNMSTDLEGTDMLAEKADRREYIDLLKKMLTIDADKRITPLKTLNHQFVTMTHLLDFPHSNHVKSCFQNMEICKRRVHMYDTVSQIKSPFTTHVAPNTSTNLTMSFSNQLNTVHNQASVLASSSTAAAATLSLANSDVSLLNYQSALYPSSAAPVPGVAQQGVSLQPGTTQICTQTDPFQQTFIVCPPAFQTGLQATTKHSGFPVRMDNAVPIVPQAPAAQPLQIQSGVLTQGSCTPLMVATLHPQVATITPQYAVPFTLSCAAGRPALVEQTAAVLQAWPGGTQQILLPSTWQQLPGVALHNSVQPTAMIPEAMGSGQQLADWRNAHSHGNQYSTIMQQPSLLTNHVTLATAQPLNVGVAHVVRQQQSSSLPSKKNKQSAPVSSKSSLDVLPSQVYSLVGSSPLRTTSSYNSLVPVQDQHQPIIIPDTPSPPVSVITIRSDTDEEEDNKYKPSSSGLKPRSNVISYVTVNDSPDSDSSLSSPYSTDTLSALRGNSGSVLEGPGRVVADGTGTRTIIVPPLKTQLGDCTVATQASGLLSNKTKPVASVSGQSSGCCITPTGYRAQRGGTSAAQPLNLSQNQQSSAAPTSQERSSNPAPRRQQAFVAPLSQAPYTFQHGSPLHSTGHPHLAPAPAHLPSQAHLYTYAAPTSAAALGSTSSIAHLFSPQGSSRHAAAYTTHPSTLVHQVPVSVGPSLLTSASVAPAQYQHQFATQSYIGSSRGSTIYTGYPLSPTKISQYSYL
Description: as §1

[6] = biological target: T2, SGK1 (Homo sapiens, UniProt O00141)
T2 sequence (O00141 1-431): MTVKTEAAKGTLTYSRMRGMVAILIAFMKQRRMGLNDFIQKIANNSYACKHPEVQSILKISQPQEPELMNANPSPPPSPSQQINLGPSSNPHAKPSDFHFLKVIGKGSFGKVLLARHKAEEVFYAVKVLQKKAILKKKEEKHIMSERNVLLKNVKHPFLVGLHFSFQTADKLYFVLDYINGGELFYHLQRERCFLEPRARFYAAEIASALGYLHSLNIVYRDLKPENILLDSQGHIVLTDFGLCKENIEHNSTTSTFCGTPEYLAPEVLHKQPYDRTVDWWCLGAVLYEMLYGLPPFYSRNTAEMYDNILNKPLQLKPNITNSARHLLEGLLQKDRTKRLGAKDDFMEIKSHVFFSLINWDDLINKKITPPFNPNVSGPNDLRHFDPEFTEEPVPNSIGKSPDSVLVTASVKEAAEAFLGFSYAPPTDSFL
Description: as §1

[7] = biological target: T3, ZAP70 (Homo sapiens, UniProt P43403)
T3 sequence (P43403 1-619): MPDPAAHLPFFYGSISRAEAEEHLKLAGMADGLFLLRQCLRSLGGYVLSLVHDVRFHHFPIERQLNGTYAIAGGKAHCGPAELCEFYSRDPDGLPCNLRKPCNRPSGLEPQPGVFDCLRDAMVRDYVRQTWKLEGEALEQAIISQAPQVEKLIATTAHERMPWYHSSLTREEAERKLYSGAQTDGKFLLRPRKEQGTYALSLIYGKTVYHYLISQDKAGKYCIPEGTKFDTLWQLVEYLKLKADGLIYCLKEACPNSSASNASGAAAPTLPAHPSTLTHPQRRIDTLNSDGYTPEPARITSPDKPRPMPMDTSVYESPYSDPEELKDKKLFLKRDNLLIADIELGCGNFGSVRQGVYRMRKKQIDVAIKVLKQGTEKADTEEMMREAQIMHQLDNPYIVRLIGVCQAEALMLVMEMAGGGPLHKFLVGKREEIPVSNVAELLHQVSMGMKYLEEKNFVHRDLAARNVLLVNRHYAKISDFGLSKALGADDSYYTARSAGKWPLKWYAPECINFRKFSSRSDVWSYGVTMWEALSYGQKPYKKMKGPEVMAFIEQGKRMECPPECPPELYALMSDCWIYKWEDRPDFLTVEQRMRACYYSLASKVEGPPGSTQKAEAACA
Description: as §1

[8] = biological target: JAK2 (Homo sapiens, UniProt O60674)
Chain of JAK2 (O60674 whole entry): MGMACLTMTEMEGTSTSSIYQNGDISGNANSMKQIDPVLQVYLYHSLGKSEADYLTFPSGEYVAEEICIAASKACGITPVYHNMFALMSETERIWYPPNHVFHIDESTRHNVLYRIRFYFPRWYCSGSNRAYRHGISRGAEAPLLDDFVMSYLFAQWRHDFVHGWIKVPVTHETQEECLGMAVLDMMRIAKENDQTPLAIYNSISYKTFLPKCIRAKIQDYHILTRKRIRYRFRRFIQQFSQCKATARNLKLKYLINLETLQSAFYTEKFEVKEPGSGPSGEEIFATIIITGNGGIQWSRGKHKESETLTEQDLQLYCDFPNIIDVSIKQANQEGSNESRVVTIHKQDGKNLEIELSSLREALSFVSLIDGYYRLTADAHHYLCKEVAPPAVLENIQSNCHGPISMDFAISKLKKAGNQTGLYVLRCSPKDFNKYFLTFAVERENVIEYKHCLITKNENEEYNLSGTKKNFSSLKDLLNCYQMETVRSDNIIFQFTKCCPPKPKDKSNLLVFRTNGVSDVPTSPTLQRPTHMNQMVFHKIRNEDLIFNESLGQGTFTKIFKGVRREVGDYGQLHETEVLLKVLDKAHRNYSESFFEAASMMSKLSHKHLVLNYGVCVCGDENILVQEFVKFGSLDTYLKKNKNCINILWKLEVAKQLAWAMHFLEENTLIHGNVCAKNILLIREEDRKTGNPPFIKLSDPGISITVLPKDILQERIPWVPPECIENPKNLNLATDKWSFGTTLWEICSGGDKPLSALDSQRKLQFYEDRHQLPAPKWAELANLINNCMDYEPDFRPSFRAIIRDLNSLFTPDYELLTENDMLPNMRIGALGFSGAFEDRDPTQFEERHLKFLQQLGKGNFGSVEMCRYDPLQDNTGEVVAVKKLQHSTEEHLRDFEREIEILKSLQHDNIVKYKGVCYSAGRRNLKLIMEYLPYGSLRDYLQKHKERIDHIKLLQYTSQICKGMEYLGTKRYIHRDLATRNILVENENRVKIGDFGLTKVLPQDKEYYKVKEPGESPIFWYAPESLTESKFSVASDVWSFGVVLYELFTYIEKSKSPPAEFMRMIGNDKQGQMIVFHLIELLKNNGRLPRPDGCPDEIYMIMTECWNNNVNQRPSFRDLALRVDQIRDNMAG
Description: as §1

Chain of RSK2 (P51812 whole entry): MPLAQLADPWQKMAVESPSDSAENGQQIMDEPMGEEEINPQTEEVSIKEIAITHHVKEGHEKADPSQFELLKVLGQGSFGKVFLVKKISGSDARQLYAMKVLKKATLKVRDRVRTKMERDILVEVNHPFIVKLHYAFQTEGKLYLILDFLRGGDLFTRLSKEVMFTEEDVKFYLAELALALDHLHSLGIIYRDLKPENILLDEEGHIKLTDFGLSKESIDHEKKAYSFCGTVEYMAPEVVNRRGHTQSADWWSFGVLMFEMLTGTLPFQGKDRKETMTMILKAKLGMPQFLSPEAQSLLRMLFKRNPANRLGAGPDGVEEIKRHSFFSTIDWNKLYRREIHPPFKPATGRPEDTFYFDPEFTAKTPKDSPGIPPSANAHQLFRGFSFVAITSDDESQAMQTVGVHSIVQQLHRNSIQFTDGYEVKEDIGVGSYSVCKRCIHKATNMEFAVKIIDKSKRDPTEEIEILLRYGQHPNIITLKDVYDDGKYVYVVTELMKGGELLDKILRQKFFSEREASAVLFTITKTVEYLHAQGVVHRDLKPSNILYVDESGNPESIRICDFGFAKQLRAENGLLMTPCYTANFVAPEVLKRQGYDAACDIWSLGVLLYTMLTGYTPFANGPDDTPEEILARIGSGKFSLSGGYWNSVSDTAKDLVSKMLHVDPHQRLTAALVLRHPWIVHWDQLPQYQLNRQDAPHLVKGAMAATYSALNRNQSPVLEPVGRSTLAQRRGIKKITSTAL

For `Cc1ccc(F)c(S(=O)(=O)Nc2ccc(-c3nc(OC[C@H]4CN(CCCCCCOCCOCCOCC(=O)N[C@H](C(=O)N5C[C@H](O)C[C@H]5C(=O)NCc5ccc(-c6scnc6C)cc5)C(C)(C)C)CCO4)c4cn[nH]c4n3)cc2)c1` [SGK3-PROTAC1], which remaining activity at 1 µM ([1]; 1 µM) is on record?
Its remaining activity at 1 µM is 120%.

What about the remaining activity at 1 µM ([2]; 1 µM) of the same molecule?
Its remaining activity at 1 µM is 116%.

And the remaining activity at 1 µM ([3]; 1 µM)?
The remaining activity at 1 µM was 103%.

What about the remaining activity at 1 µM ([4]; 1 µM) of the same molecule?
Its remaining activity at 1 µM is 83%.

And the remaining activity at 1 µM ([5]; 1 µM)?
Its remaining activity at 1 µM is 135%.

And the remaining activity at 1 µM ([6]; 1 µM)?
The remaining activity at 1 µM was 34%.

What about the remaining activity at 1 µM ([7]; 1 µM) of the same molecule?
Its remaining activity at 1 µM is 75%.

What about the remaining activity at 1 µM ([8]; 1 µM) of the same molecule?
The remaining activity at 1 µM was 95%.

`COc1ccc(Cl)c(S(=O)(=O)Nc2ccc(-c3nc(OC[C@H]4CNCCO4)c4c(C)n[nH]c4n3)cc2)c1` [290-R, reference compound] was tested. Which remaining activity at 1 µM [1] did it give?
The remaining activity at 1 µM was 24%.

And the remaining activity at 1 µM [2]?
The remaining activity at 1 µM was 78%.

And the remaining activity at 1 µM [3]?
Its remaining activity at 1 µM is 96%.

What about the remaining activity at 1 µM [4] of the same molecule?
Its remaining activity at 1 µM is 104%.

What about the remaining activity at 1 µM [5] of the same molecule?
Its remaining activity at 1 µM is 117%.

What about the remaining activity at 1 µM [6] of the same molecule?
The remaining activity at 1 µM was 2%.

And the remaining activity at 1 µM [7]?
Its remaining activity at 1 µM is 98%.

And the remaining activity at 1 µM [8]?
The remaining activity at 1 µM was 112%.

Which results are given for `Cc1ccc(F)c(S(=O)(=O)Nc2ccc(-c3nc(OC[C@H]4CN(CCCCCCOCCOCCOCC(=O)N[C@H](C(=O)N5C[C@@H](O)C[C@H]5C(=O)NCc5ccc(-c6scnc6C)cc5)C(C)(C)C)CCO4)c4cn[nH]c4n3)cc2)c1` [cisSGK3-PROTAC1]?
remaining activity at 1 µM ([1]; 1 µM): 109%; remaining activity at 1 µM ([2]; 1 µM): 112%; remaining activity at 1 µM ([3]; 1 µM): 90%; remaining activity at 1 µM ([4]; 1 µM): 87%; remaining activity at 1 µM ([5]; 1 µM): 126%; remaining activity at 1 µM ([6]; 1 µM): 51%; remaining activity at 1 µM ([7]; 1 µM): 75%; remaining activity at 1 µM ([8]; 1 µM): 94%

Which remaining activity at 1 µM [1] does the source give for `Cc1ccc(F)c(S(=O)(=O)Nc2ccc(-c3nc(OC[C@H]4CNCCO4)c4cn[nH]c4n3)cc2)c1` [308-R, reference compound] here?
The remaining activity at 1 µM was 24%.

What about the remaining activity at 1 µM [2] of the same molecule?
The remaining activity at 1 µM was 103%.

What about the remaining activity at 1 µM [3] of the same molecule?
Its remaining activity at 1 µM is 106%.

And the remaining activity at 1 µM [4]?
Its remaining activity at 1 µM is 131%.

And the remaining activity at 1 µM [5]?
Its remaining activity at 1 µM is 73%.

And the remaining activity at 1 µM [6]?
The remaining activity at 1 µM was 10%.

What about the remaining activity at 1 µM [7] of the same molecule?
The remaining activity at 1 µM was 101%.

What about the remaining activity at 1 µM [8] of the same molecule?
The remaining activity at 1 µM was 94%.
